From BindingDB's records for PubMed 7965765 (University of Cincinnati, 1994)
Where “and” joins values, the source holds several entries; their conditions need not be identical. Equal values may be shown once.

Target: T1, Thromboxane A2 receptor (Homo sapiens, UniProt P21731)
T1 sequence (P21731 whole entry): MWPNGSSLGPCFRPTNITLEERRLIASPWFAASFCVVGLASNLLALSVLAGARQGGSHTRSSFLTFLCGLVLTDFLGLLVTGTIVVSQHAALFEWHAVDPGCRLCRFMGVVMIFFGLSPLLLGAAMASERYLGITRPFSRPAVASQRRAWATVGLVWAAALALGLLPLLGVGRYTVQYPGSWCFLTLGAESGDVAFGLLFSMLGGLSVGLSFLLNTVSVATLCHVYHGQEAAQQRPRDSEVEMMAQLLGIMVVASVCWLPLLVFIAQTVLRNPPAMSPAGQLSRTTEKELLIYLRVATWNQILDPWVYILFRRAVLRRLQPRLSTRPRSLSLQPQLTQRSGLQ

Row | SMILES | Ki
1 | O=C(O)CCC/C=C\C[C@@H]1[C@@H](/C=C/[C@@H](O)COc2ccc(I)cc2)[C@H]2CC[C@@H]1O2 [CAS_128719-90-4] | 3.7 nM and 1.4 nM
2 | CCCCCC(O)C=CC1C2COC(C2)C1CC=CCCCC(=O)O (centres undefined) [NSC_114865] | 64 nM and 44 nM and 38 nM
3 | CC1(C)C2CC(NCC(O)Cc3ccc(O)c(I)c3)C(CC=CCCCC(=O)O)C1C2 (centres undefined) [NSC_122979] | 117 nM and 400 nM and 121 nM
4 | CCCCC[C@H](O)/C=C/C1[C@@H](C/C=C\CCCC(=O)O)[C@H]2CO[C@@H]1C2 (some centres undefined) [U46619] | 77 nM and 82 nM and 50 nM
